# Entries after “also recorded” stand apart in the source; their conditions may differ.
# How the values were obtained:
# estrogen receptor (ER) = molecular target: T1, estrogen receptor (ER) (Homo sapiens, UniProt P03372); conditions: cited from earlier work
# T1 sequence (P03372 1-595): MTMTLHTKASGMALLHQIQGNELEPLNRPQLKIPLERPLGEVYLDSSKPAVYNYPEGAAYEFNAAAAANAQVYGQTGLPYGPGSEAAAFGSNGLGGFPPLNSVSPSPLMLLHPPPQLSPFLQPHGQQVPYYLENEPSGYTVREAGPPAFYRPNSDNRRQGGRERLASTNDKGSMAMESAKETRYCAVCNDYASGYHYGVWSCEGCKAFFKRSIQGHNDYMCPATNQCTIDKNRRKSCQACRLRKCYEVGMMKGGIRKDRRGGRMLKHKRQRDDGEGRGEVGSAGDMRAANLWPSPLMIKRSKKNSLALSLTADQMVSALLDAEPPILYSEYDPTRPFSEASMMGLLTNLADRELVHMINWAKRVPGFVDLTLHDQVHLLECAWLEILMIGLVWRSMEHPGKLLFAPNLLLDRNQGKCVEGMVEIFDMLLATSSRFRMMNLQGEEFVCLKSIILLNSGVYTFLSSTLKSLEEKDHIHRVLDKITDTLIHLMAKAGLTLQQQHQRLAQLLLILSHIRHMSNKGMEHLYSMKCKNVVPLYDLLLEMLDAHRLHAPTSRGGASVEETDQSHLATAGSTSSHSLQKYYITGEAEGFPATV
# [1] = Storage at elevated temperature/humidity, solid form checked by XRPD; assay type: physicochemical
# [2] = as above; assay type: physicochemical; conditions: for XRPD after storage at 25° C./97% RH for 1 week (solid form) / XRPD after storage at 40° C./75% RH for 1 week (solid form): 1 week (7 days); for Form change on exposure to high RH (>90%): e.g. 7 days / prolonged exposure
# Procedure: Samples 1 and 2 were characterized by XRPD at various conditions. XRPD patterns were collected for the samples at ambient condition as the samples were provided; at variable temperature (VT-XRPD); at variable humidity (VH-XRPD); after the samples were exposed to 40° C./75% RH for 1 week and 25° C./97% RH for 1 week, respectively; and after a GVS measurement wherein the samples were exposed to 0-90% RH. Samples 1 and 2 were also characterized by ^1H NMR, TGA, DSC, KF, IC, GVS (exposed to 0-90% RH), PLM, SEM, and HPLC (Table 5). […]
# [3] = Gravimetric Vapour Sorption (GVS) with XRPD post-GVS; assay type: physicochemical; conditions: for Form change at high RH (>90%) in GVS experiments: above 90% RH; for XRPD post GVS (uptake 0-90% RH): after GVS 0-90% RH; for GVS total mass change between 0 and 90% RH: 0-90% RH (Table 17)
# Procedure: Sorption isotherms were obtained using a SMS DVS Intrinsic moisture sorption analyzer, controlled by DVS Intrinsic Control software v1.0.1.2 (or v 1.0.1.3). The sample temperature was maintained at 25° C. by the instrument controls. The humidity was controlled by mixing streams of dry and wet nitrogen, with a total flow rate of 200 ml/min. The relative humidity was measured by a calibrated Rotronic probe (dynamic range of 1.0-100% RH), located near the sample. The weight change, (mass relaxation) of the sample as a function of % RH was constantly monitored by the microbalance (accuracy ±0.005 mg).
# A sample (e.g., 20 mg) was placed in a tared mesh stainless steel basket under ambient conditions. The sample was loaded and unloaded at 40% RH and 25° C. (typical room conditions). A moisture sorption isotherm was performed as outlined below (2 scans giving 1 complete cycle). Standard isotherms were performed at 25° C. at 10% RH intervals over a 0-90% RH range. Data analysis was carried out using Microsoft Excel using DVS Analysis Suite v6.2 (or 6.1 or 6.0).
# In a cycle of 2 scans, the first scan was performed with adsorption of 40-90% RH, followed by a second scan with desorption of 90-0% RH and adsorption of 0-40% RH, with intervals of 10% RH, at 25° C. with stability dm/dt of 0.002% ° C./min. The sorption time was 6 hr time out.
# The sample was recovered after completion of the isotherm and re-analyzed by XRPD. Custom moisture sorption methods were also performed at 25° C. at fixed % RH intervals over a 0-95% RH range, with the purpose to fully understand the sorption/desorption behavior of the compound under elevated conditions.
# To further explore the humidity behavior of Sample 1 (Form 1) upon exposure to high RH (>90%), custom GVS experiments were designed and carried out. Initially, the sample was treated by holding at 90 and then 95% RH for ˜12 hours to see if hydrate formation could be observed (HighRH method of Steps 1 and 2 of Table 2, FIGS. 6C-6D).
# To test the stability of the hydrated state, GVS method HighRH_Desorp_3 was designed with a desorption step and subsequent adsorption (see Table 2 with steps 1-4, FIGS. 6E-6F).
# Finally, to ensure complete conversion to the anhydrous and hydrated forms, a GVS experiment was designed to increase both the length of the desorption step at 0% RH, and the adsorption step at 95% RH, respectively (Table 3). Based on the weight stabilization observed in the kinetic plots for Sample 1 in HighRH and HighRH_Desorp_3 methods discussed above (FIGS. 6D and 6F), a holding time of 800 mins at 0% RH and 1600 mins at 95% RH were chosen. A double cycle was also recorded for this experiment to observe whether the sample would return to Form 1 or form a mixed anhydrous/hydrated species (see Table 3, FIGS. 6G-6H).
# [4] = Variable humidity XRPD (VH-XRPD); assay type: physicochemical
# Procedure: Samples run under non-ambient conditions were prepared by gently packing into a cavity, cut into a silicon wafer to obtain a flat surface and mounted onto a humidity stage with an Ansyco controller and humidity sensor positioned directly next to the sample holder. The data were collected at 298.15 K with water temperature of 35.0° C., in an angular range of 3 to 31° 2θ, with a step size of 0.025° 2θ, a collection time of 2.0 sec/step, and a collection time at each % RH was 41 min 28 sec.
# X-Ray Powder Diffraction (XRPD) patterns were collected at variable humidity values from 0 to 95% RH, based upon the humidity behavior of each compound observed during GVS experiments (described herein). For each Variable Humidity X-Ray Powder Diffraction (VH-XRPD) experiment performed, the % RH values selected are provided alongside the relevant experimental result. Full tables of detailing the % RH value at each collection point and the associated delay time at each value are provided in Tables 10-12.
# To fully characterize the polymorphic behavior of Samples 1 and 2 at variable humidity, and to collect reference XRPD patterns for the ‘pure’ anhydrous Form 1 and Form 2 material, and ‘pure’ hydrated Form 3 material, Variable Humidity (VH) XRPD experiments were conducted on Samples 1 and 2. Initially, VH-XRPD experiments were conducted using Sample 1, and XRPD diffractograms were collected at selected humidity values, in line with those collected during GVS experiments (see FIGS. 6E-6F). XRPD diffractograms were collected initially at ambient RH, then collected over 24 hours at ˜95% RH and finally collected during desorption steps to 0% RH and over 10 hours at 0% RH (see FIG. 4C).
# [5] = Solubility assessment and polymorph screen on Sample 1 (Form 1) of RAD1901-2HCl in 24 solvent systems; assay type: physicochemical
# Procedure: Solubility assessment was carried out on the Sample 1 of RAD1901-2HCl (majorly Form 1 shown by XRPD) in 24 solvent systems in HPLC vials (sample IDs: A1 to A24). RAD1901-2HCl (25 mg) was treated with increasing volumes of solvent until the material fully dissolved or until a maximum of 60 vol had been used (Table 13).
# After each addition of solvent, the system was stirred for 5 to 10 minutes at 25° C., then shaken at 50° C. for 5 to 10 minutes, and observations made. Samples were allowed to stand at room temperature for 5 min before the addition of a new aliquot of solvent. After the assessment was completed, the suspensions obtained were matured (maturation) and the clear solutions were cooled (cooling) and slowly evaporated (evaporation) as described below. All solids recovered from maturation, cooling and evaporation experiments were analyzed by high resolution XRPD.
# The suspensions obtained during the solubility assessment were matured by shaken in a maturation chamber between 50° C. and RT (8 hr per cycle) for up to 5 days. Then the mixture was allowed to stand at room temperature for 10 minutes. The resulting solids were filtered and air dried and analyzed by XRPD. The clear solutions obtained during maturation were evaporated in ambient conditions and the resulting residues were analyzed by XRPD.
# The clear solutions obtained during the course of the solubility assessment were cooled on a Polar Bear device from 50° C. to 5° C. at 0.1° C./min. Solids obtained upon cooling were recovered from the vials, air dried and analyzed by XRPD. If no solid was obtained, the solutions were evaporated slowly through a needle inserted into the septum cap of the vial until a solid appeared at ambient conditions and the resulting solids were filtered, air dried and analyzed by XRPD.
# [6] = Variable temperature XRPD (VT-XRPD); assay type: physicochemical
# Procedure: Samples run under non-ambient conditions were mounted on a silicon wafer with a heat-conducting compound. The sample was then heated from ambient to the appropriate temperature at 20° C./min and subsequently held isothermally for 1 minute before data collection was initiated.
# Variable Temperature XRPD (VT-XRPD) experiments were therefore conducted to examine the thermal behavior of Sample 2 observed by DSC (see FIG. 9B). […] (blue) as Form 1 material (FIG. 5D).
structure (smiles),measurement,setting,value
CCNCCc1ccc(CN(CC)c2cc(OC)ccc2[C@@H]2CCc3cc(O)ccc3C2)cc1 [RAD1901],"Binding selectivity for the estrogen receptor (ER), in words",estrogen receptor (ER),good selectivity
CCNCCc1ccc(CN(CC)c2cc(OC)ccc2[C@@H]2CCc3cc(O)ccc3C2)cc1.Cl.Cl [Lyophilization in water],XRPD post storage at 25° C./97% RH (10 days),[1]; 25° C./97% RH,Consistent with Form 3
same,XRPD post storage at 40° C./75% RH (10 days),[1]; 40° C./75% RH,Consistent with Form 3
CCNCCc1ccc(CN(CC)c2cc(OC)ccc2[C@@H]2CCc3cc(O)ccc3C2)cc1.Cl.Cl [Sample 1],XRPD after storage at 25° C./97% RH for 1 week (solid form),[2],Form 3
same,XRPD after storage at 40° C./75% RH for 1 week (solid form),[2],Form 1
same,Form change on exposure to high RH (>90%),[2],converted to the hydrate Form 3
same,GVS: reversibility of uptake and loss,[3]; 0-90% RH,(reversible)
same,GVS uptake 0-90% RH,"[3]; 0-90% RH, 25° C.",1.8% wt.
same,GVS mass uptake when held at 95% RH for ~12 hours (HighRH method),"[3]; 95% RH, ~12 hours",5-6 % wt.
same,Form change at high RH (>90%) in GVS experiments,[3],irreversibly converted to a hydrate (Form 3)
same,XRPD post GVS (uptake 0-90% RH),[3]; 25° C.,Form 1
same,XRPD post-GVS (HighRH_DoubleCycle_2 method),"[3]; double cycle, 1600 mins at 95% RH, 800 mins at 0% RH",Form 3
same,XRPD post-GVS (HighRH method),[3]; held at 90 then 95% RH for ~12 hours,mixture of states or incomplete conversion
same,XRPD post-GVS (HighRH_Desorp_3 method),"[3]; single cycle to 95% RH, desorption to 0% RH, adsorption to 40% RH",mixture of Form 1 and Form 3
same,VH-XRPD: form change over 24 hr at ~95% RH,"[4]; ~95% RH, 24 hr",unable to show a direct conversion; also recorded: Form 3 over
same,"Solubility in alcohols, esters, and hydrocarbon solvents, in words","[5]; alcohols, esters, hydrocarbon solvents",low solubility
same,"Solubility in water, in words",[5]; water,highly soluble
same,"Solubility in water and t-butanol/water (1:1), in words","[5]; water, t-butanol/water (1:1)",high solubility
CCNCCc1ccc(CN(CC)c2cc(OC)ccc2[C@@H]2CCc3cc(O)ccc3C2)cc1.Cl.Cl [Form 1B],XRPD after storage at 25° C./97% RH for 1 week (solid form),[2]; listed as Pattern B,Unchanged post storage at both conditions
same,XRPD after storage at 40° C./75% RH for 1 week (solid form),[2]; listed as Pattern B,Unchanged post storage at both conditions
same,GVS total mass change between 0 and 90% RH,[3]; listed as Pattern B,"Total change in mass of 1.4% wt. between 0 and 90% RH,"
same,XRPD post GVS (uptake 0-90% RH),"[3]; 25° C., listed as Pattern B",no hysteresis. XRPD post-GVS is consistent with Pattern
CCNCCc1ccc(CN(CC)c2cc(OC)ccc2[C@@H]2CCc3cc(O)ccc3C2)cc1.Cl.Cl [Form 2],Form obtained on exposure to >40% RH for 7 days,"[2]; >40% RH, 7 days",Form 3
same,"Hygroscopicity (GVS), in words",[3]; 0-90% RH,hygroscopic
CCNCCc1ccc(CN(CC)c2cc(OC)ccc2[C@@H]2CCc3cc(O)ccc3C2)cc1.Cl.Cl [Sample 2],XRPD after storage at 25° C./97% RH for 1 week (solid form),[2],Form 3
same,XRPD after storage at 40° C./75% RH for 1 week (solid form),[2],Form 3
same,"Hygroscopicity (GVS), in words",[3]; 0-90% RH,hygroscopic
same,XRPD post GVS (uptake 0-90% RH),[3]; 25° C.,mixture of Form 2 and Form 3
same,VH-XRPD: form at 0% RH,[4]; 0% RH,5E). Form 2 at 0%
same,VH-XRPD: form change at >90% RH,[4]; >90% RH (92-93% RH),conversion toward the hydrated state; also recorded: Conversion to Form 3
same,VT-XRPD: form after melt and recrystallization above 175° C.,[6]; heated above 175° C.,converted to Form 1; also recorded: recrystallized as Form 1
same,VT-XRPD: form obtained on heating to 100° C.,[6]; heating to 100° C.,converted to Form 2; also recorded: Anhydrous Form 2
CCNCCc1ccc(CN(CC)c2cc(OC)ccc2[C@@H]2CCc3cc(O)ccc3C2)cc1.Cl.Cl [Form 1],XRPD after storage at 25° C./97% RH for 1 week (solid form),[2],converted to Form 3; also recorded: conversion towards a hydrated state Form 3; also recorded: Converts to Form 3 at 25° C./
same,XRPD after storage at 40° C./75% RH for 1 week (solid form),[2],stable; also recorded: Remains as Form 1 at 40° C./
same,Form change on exposure to high RH (>90%),[2],irreversibly converted to the hydrate Form 3
same,"Stability of the form (heat/humidity), in words",[2]; summary of characterizations of Samples 1 and 2,stable
same,GVS: reversibility of uptake and loss,[3]; 0-90% RH,"exhibits reversible uptake and loss,"
same,"Hygroscopicity (GVS), in words",[3]; 0-90% RH,"lower hygroscopicity; also recorded: relatively non-hygroscopic; also recorded: low hygroscopicity; also recorded: Sample is slightly hygroscopic, but"
same,GVS total mass change between 0 and 90% RH,[3],Total mass change of 1.7% wt.
same,Form change at high RH (>90%) in GVS experiments,[3],started converting to the hydrate Form 3
same,XRPD post GVS (uptake 0-90% RH),[3]; 25° C.,unchanged XRPD pattern; also recorded: No changes; also recorded: Form 1

# Reference: patent US11643385B2, “Polymorphic forms of RAD1901-2HCl” (RADIUS PHARMACEUTICALS, INC., priority 2018, dated 2023)
